One substance from patent US20240261375A1, “PHARMACEUTICAL COMPOSITION FOR TREATING OR PREVENTING DISORDER ASSOCIATED WITH ADMINISTRATION OF ANTICANCER AGENT” (LTT BIO-PHARMA CO., LTD., priority 2021, published 2024) can be followed below.

In experiment [1] the test system is OXA-induced allodynia model rats. The experiment is described as follows: Cold stimulation (acetone) test in OXA-induced allodynia model rats. The class given is in vivo, rat. Conditions: OXA 10 mg/kg i.p. Days 1 and 2; PC-SOD 1 mg/kg caudal vein, prophylactic; FIG. 2. As for the experimental part: Five-week-old male SD rats (from 200 to 400 g) were used as laboratory animals, and OXA was administered into the peritoneal cavity of rats at a dose of 10 mg/kg. A total of two doses were given (Days 1 and 2). A solvent for OXA, i.e., a 5% glucose solution, was similarly administered to a control group.
Laboratory animals were divided into three groups (n=8 per group): a control group, an OXA administration group, and a group receiving administration of OXA and PC-SOD 1 mg/kg (OXA+PC-SOD administration group). For the OXA+PC-SOD administration group, PC-SOD was administered into the caudal vein from 15 minutes after administration of OXA as prophylactic administration. A total of two doses were given (Days 1 and 2). A solvent for PC-SOD was similarly administered to the control group and the OXA administration group.
Rats were placed in a container with a wire net bottom and acclimatized for 30 minutes, and then 0.1 mL of acetone was sprayed onto their hindlimb by using a spray for an organic solvent (No. 3530, Furupla Co., Ltd.) to give a cold stimulus by utilizing a cooling action at the time of vaporization of acetone. […] Specifically, the responses were assessed by scoring with four levels (Scores 0, 1, 2, and 3). Score 0 was to be given if animals were unresponsive as in a resting state. […]

Experiment [2] has as its system kidney of CIS-treated rats. The experiment is described as follows: Assessment of kidney disorder caused by cisplatin in rats. Conditions: CIS 3 mg/kg i.p. 8 doses. Format: in vivo, rat. The protocol: Six to eight-week-old male SD rats (from 200 to 400 g) were used. […] A total of eight doses were given with a regimen of twice weekly for four weeks (Days 1, 2, 7, 8, 13, 14, 19, and 20). A solvent for CIS, i.e., physiological saline, was similarly administered to a control group. […] Laboratory animals were divided into three groups: a control group, a CIS administration group, and a group receiving administration of CIS and PC-SOD 1 mg/kg (CIS+PC-SOD administration group) (n=6 per group).
For an experiment of prevention, PC-SOD was administered into the caudal vein from five to 15 minutes after CIS administration in the CIS+PC-SOD administration group. A total of eight doses were given with a regimen of twice weekly for four weeks (Days 1, 2, 7, 8, 13, 14, 19, and 20). A solvent for PC-SOD was similarly administered to the control group and the CIS administration group. The rat kidney weight was measured, and changes in the kidney weight were corrected with body weight. Further, a photograph of the kidney was taken to check changes in size and morphology of the kidney (Scale bar=10 mm).
For pathological analysis, a split was put in the sagittal plane of the collected kidney, and the kidney was fixed with 10% formalin to prepare a paraffin block by using Histos 5 (Milestone) and an embedding center (EG1160, Leica). The sample block was thinly sliced by using a microtome (MR2245, Leica) at a thickness of 3 μm to prepare a slide. The prepared slide was subjected to Periodic acid-Schiff (PAS) staining for assessment of clinical condition and Picrosirius Red staining for assessment of fibrosis. A fibrosis marker α-SMA was stained by an immunostaining method. […] Observation and assessment were performed by observing the whole section. Four to nine images of tissue on the cortical side on which the disorder was induced were randomly taken up, and inflammation, tubular necrosis, protein agglutination in renal tubules, vacuolation, and necrosis were assessed for changes in clinical condition. […] (Scale bar=500 μm (FIG. 11-1), Scale bar=200 μm (FIGS. 11-2 and 11-3)).

A further experiment concerns RAW cells. The experiment can be described thus: Active oxygen production in RAW cells (MitoSOX Red). Conditions: gemcitabine, oxaliplatin, cisplatin or carboplatin with simultaneous PC-SOD, 16 hours; FIG. 13-2. Format: cell-based. The protocol:
RAW cells were seeded on a 96-well plate for fluorescence at 20 000 cells/well (D-MEM high glucose medium containing 10% inactivated FBS). […] Sixteen hours later, cells were treated with an HBSS solution containing dissolved MitoSOX™ Red Mitochondrial Superoxide Indicator (Invitrogen™) for 30 minutes, and the medium was replaced with D-MEM high glucose medium containing 1% inactivated FBS. Active oxygen production in mitochondria was determined by measuring fluorescence (Ex 510 nm, Em 580 nm) by using a plate reader (Infinite M Plex, Tecan). Cells for four wells were analyzed for each group.

The test system of experiment [3] is intraepidermal nerve fiber of OXA-treated rats. The experiment can be described thus: Assessment of density of intraepidermal nerve fiber (PGP9.5 staining). The class given is in vivo, rat. Conditions: OXA+PC-SOD 1 mg/kg; FIG. 3. The protocol: Rat epidermis tissue was fixed with a 4% paraformaldehyde fixative and washed with PBS 24 hours later, and a frozen block was prepared. A frozen slice having a thickness of 50 μm was prepared from the prepared block by using Cryostat (CM3050S, Leica Biosystems), and a 0.2% Triton-X solution was added as permeabilization treatment to allow the mixture to react for 10 minutes. Nerve fiber was allowed to react with Anti-PGP9.5 antibody (Ultraclone Ltd.) at 4° C. overnight, then it was washed with PBST, and allowed to react with a secondary fluorescence antibody (Goat anti-Rabbit IgG Alexa Fluor 488, Invitrogen). After the reaction was done at room temperature for one hour, the nerve fiber was washed, rinsed, followed by dropwise addition of […] with DAPI H-1200 (Vector Laboratories), and enclosed, and two to three images of each sample captured at 200-fold magnification were saved (Scale bar=100 μm) by using a fluorescence microscope BZ-X800 (Keyence Corporation).

Experiment [4] has as its system liver of OXA-treated rats. The experiment is described as follows: Pathological assessment of liver disorder caused by oxaliplatin (HE staining). Format: in vivo, rat. To be noted: PC-SOD 1 mg/kg, mangafodipir dose not given, FIG. 5. An excerpt: A liver tissue was collected and fixed with 10% neutral buffered formalin to prepare a paraffin block by using Histos 5 (Milestone) and an embedding center (EG1160, Leica). The sample block was thinly sliced at a thickness of 3 μm by using a microtome (MR2245, Leica) to prepare a slide. The prepared slide was stained by HE staining, enclosed, and observed at 200 and 400-fold magnifications by using the optical microscope function of All-in-One Fluorescence Microscope (BZ-X800, Keyence Corporation). Observation and assessment were performed by observing the whole section. Two to four representative tissue images were randomly taken up, and alteration in the tissue structure, such as inflammation and necrosis, was observed and assessed (Scale bar=200 μm).

Turning to “lecithinized superoxide dismutase [PC-SOD]”, in experiment [1], the “increase in score for cold stimulus (acetone test)” value is on record as “significantly suppressed”. In addition, the “increase in kidney weight and swelling of the kidney caused by CIS” value in experiment [2] (PC-SOD 1 mg/kg caudal vein, FIG. 10-1, 10-2) is “the suppressive effect on an increase in the kidney weight and swelling of the kidney caused by CIS was confirmed”. The “pathological damage to the kidney caused by CIS (PAS staining)” value in experiment [2] (PC-SOD 1 mg/kg, FIG. 11-1) is “a suppressive effect on pathological damage to the kidney caused by CIS was observed”. In addition, in experiment [2] (PC-SOD 1 mg/kg, FIG. 11-2, 11-3), the “renal fibrosis caused by CIS (Picrosirius Red and α-SMA staining)” value is “decreases of fibrosis-positive regions in the kidney caused by CIS were detected”. The “anticancer agent-dependent production of active oxygen in RAW cells” value in the experiment with RAW cells is recorded as “significantly suppressed the anticancer agent-dependent production of active oxygen dependently on the concentration of PC-SOD”. For the same substance, in experiment [3], the “decrease in density of intraepidermal nerve fiber caused by OXA” value is recorded as “a suppressive effect on the decrease in density of intraepidermal nerve fiber caused by OXA was observed”. Also, the “necrosis of liver cells caused by OXA” value in experiment [4] is reported as “a suppressive effect on necrosis of liver cells caused by OXA was shown”.
